Tests used:
[1] = molecular target: STE20/SPS1-related proline-alanine-rich protein kinase (Homo sapiens) (UniProt Q9UEW8); test: Inhibition of STK39 (unknown origin) assessed as residual activity at 1000 nM by KINOMEscan analysis relative to control
[2] = molecular target: T1, Mitogen-activated protein kinase kinase kinase kinase 2 (Homo sapiens) (UniProt Q12851); test: Inhibition of MAP4K2 (unknown origin) assessed as residual activity at 1000 nM by KINOMEscan analysis relative to control
T1 sequence (whole entry): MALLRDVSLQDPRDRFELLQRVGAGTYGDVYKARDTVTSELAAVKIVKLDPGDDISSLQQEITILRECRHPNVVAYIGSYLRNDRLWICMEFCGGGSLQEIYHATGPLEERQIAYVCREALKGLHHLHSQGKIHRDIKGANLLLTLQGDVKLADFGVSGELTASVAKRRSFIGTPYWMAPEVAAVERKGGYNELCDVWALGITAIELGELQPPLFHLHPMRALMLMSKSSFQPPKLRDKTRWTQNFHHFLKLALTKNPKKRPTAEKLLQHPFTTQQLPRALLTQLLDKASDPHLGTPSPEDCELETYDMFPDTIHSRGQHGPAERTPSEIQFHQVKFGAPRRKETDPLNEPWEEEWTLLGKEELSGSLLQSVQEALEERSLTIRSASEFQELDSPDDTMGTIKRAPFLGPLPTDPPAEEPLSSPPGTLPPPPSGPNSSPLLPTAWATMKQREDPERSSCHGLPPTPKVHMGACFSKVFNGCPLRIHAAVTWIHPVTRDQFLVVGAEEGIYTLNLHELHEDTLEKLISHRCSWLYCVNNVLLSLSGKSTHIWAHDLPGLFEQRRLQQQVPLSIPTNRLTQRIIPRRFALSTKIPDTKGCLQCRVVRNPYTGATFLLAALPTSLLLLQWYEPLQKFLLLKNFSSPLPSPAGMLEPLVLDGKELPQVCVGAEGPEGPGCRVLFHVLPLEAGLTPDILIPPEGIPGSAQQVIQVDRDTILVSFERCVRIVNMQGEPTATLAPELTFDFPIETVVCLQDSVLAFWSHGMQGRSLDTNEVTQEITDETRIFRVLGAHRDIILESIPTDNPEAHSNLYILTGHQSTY

[3] = molecular target: Activated CDC42 kinase 1 (Homo sapiens) (UniProt Q07912); test: Inhibition of TNK2 (unknown origin) assessed as residual activity at 1000 nM by KINOMEscan analysis relative to control
[4] = molecular target: Tyrosine-protein kinase Fgr (Homo sapiens) (UniProt P09769); test: Inhibition of FGR (unknown origin) assessed as residual activity at 1000 nM by KINOMEscan analysis relative to control
[5] = molecular target: T2, Aurora kinase C (Homo sapiens) (UniProt Q9UQB9); test: Inhibition of AURKC (unknown origin) assessed as residual activity at 1000 nM by KINOMEscan analysis relative to control
T2 sequence (whole entry): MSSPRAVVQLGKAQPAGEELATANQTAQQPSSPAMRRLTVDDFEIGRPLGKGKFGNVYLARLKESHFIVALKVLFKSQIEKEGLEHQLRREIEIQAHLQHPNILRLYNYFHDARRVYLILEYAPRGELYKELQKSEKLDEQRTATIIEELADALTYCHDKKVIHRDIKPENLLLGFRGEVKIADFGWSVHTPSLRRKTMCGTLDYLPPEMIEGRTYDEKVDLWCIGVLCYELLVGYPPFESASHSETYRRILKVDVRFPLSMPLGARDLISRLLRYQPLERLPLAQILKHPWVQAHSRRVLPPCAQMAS

[6] = molecular target: Mitogen-activated protein kinase kinase kinase 4 (Homo sapiens) (UniProt Q9Y6R4); test: Inhibition of MAP3K4 (unknown origin) assessed as residual activity at 1000 nM by KINOMEscan analysis relative to control
[7] = molecular target: Serine/threonine-protein kinase OSR1 (Homo sapiens) (UniProt O95747); test: Inhibition of OSR1 (unknown origin) assessed as residual activity at 1000 nM by KINOMEscan analysis relative to control
[8] = molecular target: T3, Serine/threonine-protein kinase PknB (Mycobacterium tuberculosis) (UniProt P9WI81); test: Inhibition of Mycobacterium tuberculosis PKNB assessed as residual activity at 1000 nM by KINOMEscan analysis relative to control
T3 sequence (whole entry): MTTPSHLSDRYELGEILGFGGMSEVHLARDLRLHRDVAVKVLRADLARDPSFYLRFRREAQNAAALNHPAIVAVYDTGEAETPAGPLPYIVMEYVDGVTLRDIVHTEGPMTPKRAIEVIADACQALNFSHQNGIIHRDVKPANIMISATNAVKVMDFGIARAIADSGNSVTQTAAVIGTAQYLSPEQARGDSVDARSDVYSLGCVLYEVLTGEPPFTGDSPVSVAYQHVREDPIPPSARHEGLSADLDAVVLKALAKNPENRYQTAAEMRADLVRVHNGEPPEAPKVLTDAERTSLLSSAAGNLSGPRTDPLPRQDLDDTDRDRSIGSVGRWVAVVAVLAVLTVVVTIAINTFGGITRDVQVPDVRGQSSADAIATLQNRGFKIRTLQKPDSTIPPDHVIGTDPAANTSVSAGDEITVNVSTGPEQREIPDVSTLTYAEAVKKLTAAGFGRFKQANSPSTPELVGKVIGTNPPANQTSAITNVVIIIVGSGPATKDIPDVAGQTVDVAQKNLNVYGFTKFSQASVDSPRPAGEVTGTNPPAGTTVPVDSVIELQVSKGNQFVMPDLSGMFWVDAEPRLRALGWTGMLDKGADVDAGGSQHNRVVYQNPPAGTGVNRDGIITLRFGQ

[9] = molecular target: Mitogen-activated protein kinase kinase kinase 1 (Homo sapiens) (UniProt Q13233); test: Inhibition of MAP3K1 (unknown origin) assessed as residual activity at 1000 nM by KINOMEscan analysis relative to control
Sequence of Mitogen-activated protein kinase kinase kinase 1 (Homo sapiens) (Q13233 whole entry): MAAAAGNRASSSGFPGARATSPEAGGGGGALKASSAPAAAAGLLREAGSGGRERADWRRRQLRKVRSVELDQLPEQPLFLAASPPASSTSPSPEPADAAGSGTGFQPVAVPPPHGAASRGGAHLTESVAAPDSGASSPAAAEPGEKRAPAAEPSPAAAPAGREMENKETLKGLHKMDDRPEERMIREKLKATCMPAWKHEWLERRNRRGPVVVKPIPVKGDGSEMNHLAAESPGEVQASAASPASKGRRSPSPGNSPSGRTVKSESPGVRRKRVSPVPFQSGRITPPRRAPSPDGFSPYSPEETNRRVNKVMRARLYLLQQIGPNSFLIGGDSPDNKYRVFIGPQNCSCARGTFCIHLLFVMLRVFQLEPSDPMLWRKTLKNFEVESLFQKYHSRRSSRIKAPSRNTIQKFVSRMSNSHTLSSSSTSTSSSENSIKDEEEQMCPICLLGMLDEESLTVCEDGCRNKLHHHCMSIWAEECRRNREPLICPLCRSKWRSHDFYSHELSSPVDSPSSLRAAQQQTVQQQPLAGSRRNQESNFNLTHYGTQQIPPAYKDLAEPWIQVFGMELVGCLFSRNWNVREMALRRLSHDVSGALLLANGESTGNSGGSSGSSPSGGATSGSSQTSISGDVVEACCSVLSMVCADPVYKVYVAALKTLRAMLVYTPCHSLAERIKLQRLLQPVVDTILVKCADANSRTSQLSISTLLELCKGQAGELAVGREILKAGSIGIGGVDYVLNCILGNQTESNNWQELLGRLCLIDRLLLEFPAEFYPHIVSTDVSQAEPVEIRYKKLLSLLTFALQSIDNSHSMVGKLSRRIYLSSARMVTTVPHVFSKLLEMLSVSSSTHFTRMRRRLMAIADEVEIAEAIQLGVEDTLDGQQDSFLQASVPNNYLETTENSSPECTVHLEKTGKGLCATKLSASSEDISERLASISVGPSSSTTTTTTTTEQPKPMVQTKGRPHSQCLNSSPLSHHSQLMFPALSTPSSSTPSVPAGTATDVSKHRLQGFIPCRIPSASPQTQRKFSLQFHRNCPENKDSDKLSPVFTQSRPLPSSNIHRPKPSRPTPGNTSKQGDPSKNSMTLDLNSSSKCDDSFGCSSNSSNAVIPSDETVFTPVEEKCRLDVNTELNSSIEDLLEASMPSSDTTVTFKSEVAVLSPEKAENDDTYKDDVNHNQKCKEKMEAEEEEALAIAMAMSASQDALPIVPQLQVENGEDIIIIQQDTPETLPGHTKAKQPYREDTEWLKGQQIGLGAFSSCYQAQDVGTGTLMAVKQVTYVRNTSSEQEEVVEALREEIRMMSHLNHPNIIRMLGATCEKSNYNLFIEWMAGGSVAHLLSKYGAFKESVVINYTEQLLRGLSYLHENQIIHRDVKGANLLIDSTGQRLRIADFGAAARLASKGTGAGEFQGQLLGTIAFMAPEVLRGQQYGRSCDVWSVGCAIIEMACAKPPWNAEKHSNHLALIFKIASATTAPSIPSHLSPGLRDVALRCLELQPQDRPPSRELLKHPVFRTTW

Sequence of Mitogen-activated protein kinase kinase kinase 4 (Homo sapiens) (Q9Y6R4 whole entry): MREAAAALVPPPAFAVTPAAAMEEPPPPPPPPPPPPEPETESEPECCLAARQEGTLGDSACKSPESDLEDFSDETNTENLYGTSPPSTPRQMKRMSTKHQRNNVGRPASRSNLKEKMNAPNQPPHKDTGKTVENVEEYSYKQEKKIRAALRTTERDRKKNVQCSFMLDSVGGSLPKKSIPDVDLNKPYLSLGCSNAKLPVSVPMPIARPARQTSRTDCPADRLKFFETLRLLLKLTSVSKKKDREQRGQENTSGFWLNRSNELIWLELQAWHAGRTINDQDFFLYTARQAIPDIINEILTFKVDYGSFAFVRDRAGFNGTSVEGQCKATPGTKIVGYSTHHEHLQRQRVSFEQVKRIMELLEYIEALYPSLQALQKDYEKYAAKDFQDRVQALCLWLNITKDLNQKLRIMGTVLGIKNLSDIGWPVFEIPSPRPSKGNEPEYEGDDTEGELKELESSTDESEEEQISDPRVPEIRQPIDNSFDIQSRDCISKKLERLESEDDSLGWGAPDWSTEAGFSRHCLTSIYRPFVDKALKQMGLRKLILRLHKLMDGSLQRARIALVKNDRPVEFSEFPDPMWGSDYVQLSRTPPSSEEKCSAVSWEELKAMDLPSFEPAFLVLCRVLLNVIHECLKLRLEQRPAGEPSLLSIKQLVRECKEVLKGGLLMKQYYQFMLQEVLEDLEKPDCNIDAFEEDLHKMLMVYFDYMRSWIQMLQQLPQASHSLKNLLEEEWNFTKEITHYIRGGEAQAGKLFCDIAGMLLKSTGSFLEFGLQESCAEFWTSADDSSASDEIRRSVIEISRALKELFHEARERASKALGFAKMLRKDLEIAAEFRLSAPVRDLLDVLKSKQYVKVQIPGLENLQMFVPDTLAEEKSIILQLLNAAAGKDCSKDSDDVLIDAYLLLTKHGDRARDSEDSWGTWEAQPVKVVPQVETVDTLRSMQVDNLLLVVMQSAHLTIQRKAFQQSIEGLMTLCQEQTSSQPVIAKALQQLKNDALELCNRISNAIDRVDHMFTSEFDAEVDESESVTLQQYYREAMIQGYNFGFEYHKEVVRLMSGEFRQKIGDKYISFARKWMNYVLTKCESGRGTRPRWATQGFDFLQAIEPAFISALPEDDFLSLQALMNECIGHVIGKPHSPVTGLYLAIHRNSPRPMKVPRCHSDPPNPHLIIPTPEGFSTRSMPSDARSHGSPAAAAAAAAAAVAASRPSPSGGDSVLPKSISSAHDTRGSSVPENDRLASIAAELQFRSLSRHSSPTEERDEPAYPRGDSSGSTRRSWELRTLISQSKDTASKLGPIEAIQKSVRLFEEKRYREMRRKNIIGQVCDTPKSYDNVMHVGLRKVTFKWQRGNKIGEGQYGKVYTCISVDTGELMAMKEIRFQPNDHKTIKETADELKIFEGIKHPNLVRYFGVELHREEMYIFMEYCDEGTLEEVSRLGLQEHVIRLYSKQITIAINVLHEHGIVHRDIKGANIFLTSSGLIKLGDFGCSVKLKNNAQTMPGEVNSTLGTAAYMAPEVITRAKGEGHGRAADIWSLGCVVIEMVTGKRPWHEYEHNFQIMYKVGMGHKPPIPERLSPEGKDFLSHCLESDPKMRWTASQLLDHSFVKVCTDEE
Sequence of Activated CDC42 kinase 1 (Homo sapiens) (Q07912 whole entry, looked up): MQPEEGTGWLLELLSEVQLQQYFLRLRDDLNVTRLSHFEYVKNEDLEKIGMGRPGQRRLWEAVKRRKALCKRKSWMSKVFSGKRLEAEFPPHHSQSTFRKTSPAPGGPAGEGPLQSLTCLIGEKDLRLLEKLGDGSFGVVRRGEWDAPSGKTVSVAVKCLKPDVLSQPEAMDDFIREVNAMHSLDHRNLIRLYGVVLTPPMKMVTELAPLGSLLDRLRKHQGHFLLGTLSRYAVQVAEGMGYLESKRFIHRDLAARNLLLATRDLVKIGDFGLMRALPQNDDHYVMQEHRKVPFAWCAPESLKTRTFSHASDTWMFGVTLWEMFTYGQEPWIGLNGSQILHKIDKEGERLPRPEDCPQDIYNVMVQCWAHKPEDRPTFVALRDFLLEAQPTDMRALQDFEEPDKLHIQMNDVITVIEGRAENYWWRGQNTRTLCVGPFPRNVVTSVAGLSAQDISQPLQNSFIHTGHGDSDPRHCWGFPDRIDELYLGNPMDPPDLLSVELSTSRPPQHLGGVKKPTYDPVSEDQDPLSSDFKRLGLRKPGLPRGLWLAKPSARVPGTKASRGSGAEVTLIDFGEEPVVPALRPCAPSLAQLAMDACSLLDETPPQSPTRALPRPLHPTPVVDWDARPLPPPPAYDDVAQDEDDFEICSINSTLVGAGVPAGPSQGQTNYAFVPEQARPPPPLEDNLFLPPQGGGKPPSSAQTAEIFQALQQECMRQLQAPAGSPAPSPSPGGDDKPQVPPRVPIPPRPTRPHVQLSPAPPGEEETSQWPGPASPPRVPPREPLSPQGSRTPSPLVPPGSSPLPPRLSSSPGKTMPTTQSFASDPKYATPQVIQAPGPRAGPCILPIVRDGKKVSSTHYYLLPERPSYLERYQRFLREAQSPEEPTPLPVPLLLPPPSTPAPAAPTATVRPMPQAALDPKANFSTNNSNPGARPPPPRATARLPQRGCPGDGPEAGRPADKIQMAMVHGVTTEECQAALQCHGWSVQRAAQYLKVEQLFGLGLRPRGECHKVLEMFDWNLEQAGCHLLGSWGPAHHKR
Sequence of Tyrosine-protein kinase Fgr (Homo sapiens) (P09769 2-529 limits assumed): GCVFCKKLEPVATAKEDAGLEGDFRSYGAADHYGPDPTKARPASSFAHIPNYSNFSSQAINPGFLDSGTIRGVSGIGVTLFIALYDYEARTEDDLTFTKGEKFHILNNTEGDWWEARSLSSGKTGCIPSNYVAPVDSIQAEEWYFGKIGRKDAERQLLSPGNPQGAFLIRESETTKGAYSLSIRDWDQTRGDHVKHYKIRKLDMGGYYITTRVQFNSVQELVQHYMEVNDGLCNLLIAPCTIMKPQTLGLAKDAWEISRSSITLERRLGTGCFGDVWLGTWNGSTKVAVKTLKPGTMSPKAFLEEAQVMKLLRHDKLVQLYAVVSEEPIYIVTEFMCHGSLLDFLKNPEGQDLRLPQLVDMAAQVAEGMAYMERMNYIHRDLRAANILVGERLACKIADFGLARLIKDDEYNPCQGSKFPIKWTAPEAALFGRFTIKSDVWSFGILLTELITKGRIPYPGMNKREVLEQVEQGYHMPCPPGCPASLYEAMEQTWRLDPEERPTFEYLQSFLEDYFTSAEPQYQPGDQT

Row | SMILES | Activity [1] [%] | Activity [2] [%] | Activity [3] [%] | Activity [4] [%] | Activity [5] [%] | Activity [6] [%] | Activity [7] [%] | Activity [8] [%] | Activity [9] [%]
1 | COc1cc2nc(C)nc(N[C@H](C)c3cccc(-c4cn[nH]c4)c3)c2cc1OC | 76 | 100 | 70 | 48 | 74 | 50 | 93 | 89 | 77
2 | COc1cc2ncnc(N[C@H](C)c3cccc4ccccc34)c2cc1OC | 100 | 78 | 100 | 95 | 100 | 96 | 97 | 94 | 100
